Key:
[1] = target: T1, GR (Homo sapiens, UniProt P04150); assay: In Vitro GR Luciferase Reporter Assay (antagonist mode, CHO-K1-GR-MMTV-Luc reporter cells); type: cell-based; conditions: antagonist mode, 10 nM Dexamethasone
T1 construct: expressed in transfected cells; host or cells: CHO-K1
T1 sequence (P04150 1-777): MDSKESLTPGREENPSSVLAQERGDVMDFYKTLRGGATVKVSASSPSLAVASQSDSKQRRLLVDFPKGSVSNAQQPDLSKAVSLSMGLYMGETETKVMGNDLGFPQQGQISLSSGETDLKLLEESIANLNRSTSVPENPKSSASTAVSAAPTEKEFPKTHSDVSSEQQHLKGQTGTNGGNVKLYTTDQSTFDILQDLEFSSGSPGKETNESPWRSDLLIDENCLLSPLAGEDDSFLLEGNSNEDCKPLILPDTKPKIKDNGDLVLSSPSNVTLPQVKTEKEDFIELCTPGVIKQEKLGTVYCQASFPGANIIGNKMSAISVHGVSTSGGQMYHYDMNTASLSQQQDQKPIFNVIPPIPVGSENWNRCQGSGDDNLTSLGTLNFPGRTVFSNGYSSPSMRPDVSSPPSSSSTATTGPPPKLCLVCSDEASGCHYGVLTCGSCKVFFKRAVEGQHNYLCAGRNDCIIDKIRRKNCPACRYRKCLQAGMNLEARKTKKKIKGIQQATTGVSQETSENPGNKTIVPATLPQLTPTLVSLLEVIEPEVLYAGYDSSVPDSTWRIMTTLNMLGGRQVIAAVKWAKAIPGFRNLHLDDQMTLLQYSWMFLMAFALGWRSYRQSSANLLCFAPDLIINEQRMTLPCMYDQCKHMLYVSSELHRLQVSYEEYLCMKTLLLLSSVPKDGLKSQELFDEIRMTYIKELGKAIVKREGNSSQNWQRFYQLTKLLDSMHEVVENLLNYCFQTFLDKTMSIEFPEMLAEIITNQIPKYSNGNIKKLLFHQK
How it was run: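 CHO-K1-GR-MMTV-Luc cells in phenol red-free DMEM with 10% CSS, stimulated with 10 nM dexamethasone (final) and treated with 8-point 1:5 compound dilutions for about 18-24 h at 37° C. Luciferase measured by OneGlo luminescence; IC50 derived for inhibition of GR activity.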

[2] = target: T2, CYP2C8 (Homo sapiens, UniProt P10632); assay: CYP Inhibition Assay (CYP2C8, human liver microsomes, paclitaxel substrate); type: in vitro ADME; conditions: pH 7.4; pooled human liver microsomes 0.1 mg/mL, probe substrate paclitaxel
T2 construct: Pooled human microsomes were obtained from Sekisui XenoTech, KS; tissue Sekisui XenoTech, KS; host or cells: pooled human liver microsomes
T2 sequence (P10632 1-490): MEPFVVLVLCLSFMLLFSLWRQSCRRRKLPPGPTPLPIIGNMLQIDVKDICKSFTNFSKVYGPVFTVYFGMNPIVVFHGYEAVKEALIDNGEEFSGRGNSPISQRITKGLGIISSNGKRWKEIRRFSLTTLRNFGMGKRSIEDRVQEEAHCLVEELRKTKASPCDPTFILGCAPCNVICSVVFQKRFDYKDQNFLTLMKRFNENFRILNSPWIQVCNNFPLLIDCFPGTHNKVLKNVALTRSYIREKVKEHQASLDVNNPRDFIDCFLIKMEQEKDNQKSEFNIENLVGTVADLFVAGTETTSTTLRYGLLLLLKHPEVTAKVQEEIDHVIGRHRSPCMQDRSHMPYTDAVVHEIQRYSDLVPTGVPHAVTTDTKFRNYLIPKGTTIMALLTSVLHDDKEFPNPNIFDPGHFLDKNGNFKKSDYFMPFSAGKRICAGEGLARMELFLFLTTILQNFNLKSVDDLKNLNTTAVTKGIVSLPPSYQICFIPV
How it was run: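 Pooled human liver microsomes (0.1 mg/mL) in 50 mM potassium phosphate pH 7.4 with compound, started with 1 mM NADPH, 5 min at 37° C, duplicate.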

Compound	IC50 [1] [nM]	inhibition at 5 min [2] [%]
Cn1ccc(S(=O)(=O)N(CC2(O)CC2)[C@H]2CCC3=Cc4c(cnn4-c4ccc(F)cc4)C[C@]3(C(=O)c3cc(F)ccn3)C2)n1 [Example 255, N-((4aS,6S)-1-(4-fluorophenyl)-4a-(4-fluoropicolinoyl)-4,4a,5,6,7,8-hexahydro-1H-benzo[f]indazol-6-yl)-N-((1-hydroxycyclopropyl)methyl)-1-methyl-1H-pyrazole-3-sulfonamide]	≤ 100	50 to 75
Cn1ccc(S(=O)(=O)N(CC2(O)CC2)[C@H]2CCC3=Cc4c(cnn4-c4ccc(F)cc4)C[C@]3(C(=O)c3cc(Cl)ccn3)C2)n1 [Example 257, N-((4aS,6S)-4a-(4-chloropicolinoyl)-1-(4-fluorophenyl)-4,4a,5,6,7,8-hexahydro-1H-benzo[f]indazol-6-yl)-N-((1-hydroxycyclopropyl)methyl)-1-methyl-1H-pyrazole-3-sulfonamide]	≤ 100	50 to 75
Cn1ccc(S(=O)(=O)N(C2CC2)[C@H]2CCC3=Cc4c(cnn4-c4ccc(F)cc4)C[C@]3(C(=O)c3cc(C(F)F)ccn3)C2)n1 [Example 258, N-cyclopropyl-N-((4aS,6S)-4a-(4-(difluoromethyl)picolinoyl)-1-(4-fluorophenyl)-4,4a,5,6,7,8-hexahydro-1H-benzo[f]indazol-6-yl)-1-methyl-1H-pyrazole-3-sulfonamide]	≤ 100	50 to 75
Cn1ccc(S(=O)(=O)N(C2CC2)[C@H]2CCC3=Cc4c(cnn4-c4ccc(F)cc4)C[C@]3(C(=O)c3ncc(Cl)cn3)C2)n1 [Example 259, N-((4aS,6S)-4a-(5-chloropyrimidine-2-carbonyl)-1-(4-fluorophenyl)-4,4a,5,6,7,8-hexahydro-1H-benzo[f]indazol-6-yl)-N-cyclopropyl-1-methyl-1H-pyrazole-3-sulfonamide]	≤ 100	25 to 50
Cn1cc(S(=O)(=O)N(CC(F)(F)F)[C@H]2CCC3=Cc4c(cnn4-c4ccc(F)cc4)C[C@]3(C(=O)c3cc(F)ccn3)C2)cn1 [Example 260, N-((4aS,6S)-1-(4-fluorophenyl)-4a-(4-fluoropicolinoyl)-4,4a,5,6,7,8-hexahydro-1H-benzo[f]indazol-6-yl)-1-methyl-N-(2,2,2-trifluoroethyl)-1H-pyrazole-4-sulfonamide]	≤ 100	50 to 75
Cn1ccnc1S(=O)(=O)N(C1CC1)[C@H]1CCC2=Cc3c(cnn3-c3ccc(F)cc3)C[C@]2(C(=O)c2cc(C(F)(F)F)ccn2)C1 [Example 261, N-cyclopropyl-N-((4aS,6S)-1-(4-fluorophenyl)-4a-(4-(trifluoromethyl)picolinoyl)-4,4a,5,6,7,8-hexahydro-1H-benzo[f]indazol-6-yl)-1-methyl-1H-imidazole-2-sulfonamide]	≤ 100	50 to 75
Cn1ncc(S(=O)(=O)N(C2CC2)[C@H]2CCC3=Cc4c(cnn4-c4ccc(F)cc4)C[C@]3(C(=O)c3cc(Cl)ccn3)C2)n1 [Example 262, N-((4aS,6S)-4a-(4-chloropicolinoyl)-1-(4-fluorophenyl)-4,4a,5,6,7,8-hexahydro-1H-benzo[f]indazol-6-yl)-N-cyclopropyl-2-methyl-2H-1,2,3-triazole-4-sulfonamide]	≤ 100	50 to 75
Cn1ncc(S(=O)(=O)N(C2CC2)[C@H]2CCC3=Cc4c(cnn4-c4ccc(F)cc4)C[C@]3(C(=O)c3cc(F)ccn3)C2)n1 [Example 263, N-cyclopropyl-N-((4aS,6S)-1-(4-fluorophenyl)-4a-(4-fluoropicolinoyl)-4,4a,5,6,7,8-hexahydro-1H-benzo[f]indazol-6-yl)-2-methyl-2H-1,2,3-triazole-4-sulfonamide]	≤ 100	75 to 90
Cn1cc(S(=O)(=O)N(C2CC2)[C@H]2CCC3=Cc4c(cnn4-c4ccc(F)cc4)C[C@]3(C(=O)c3cc(F)ccn3)C2)nn1 [Example 265, N-cyclopropyl-N-((4aS,6S)-1-(4-fluorophenyl)-4a-(4-fluoropicolinoyl)-4,4a,5,6,7,8-hexahydro-1H-benzo[f]indazol-6-yl)-1-methyl-1H-1,2,3-triazole-4-sulfonamide]	≤ 100	50 to 75
Cn1ccnc1S(=O)(=O)N(C1CC1)[C@H]1CCC2=Cc3c(cnn3-c3ccc(F)cc3)C[C@]2(C(=O)c2ncc(C(F)(F)F)s2)C1 [Example 266, N-cyclopropyl-N-((4aS,6S)-1-(4-fluorophenyl)-4a-(5 (trifluoromethyl)thiazole-2-carbonyl)-4,4a,5,6,7,8-hexahydro-1H-benzo[f]indazol-6-yl)-1-methyl-1H-imidazole-2-sulfonamide]	≤ 100	75 to 90
Cn1ccc(S(=O)(=O)N(C2CC(F)(F)C2)[C@H]2CCC3=Cc4c(cnn4-c4ccc(F)cc4)C[C@]3(C(=O)c3cc(F)ccn3)C2)n1 [Example 267, N-(3,3-difluorocyclobutyl)-N-((4aS,6S)-1-(4-fluorophenyl)-4a-(4-fluoropicolinoyl)-4,4a,5,6,7,8-hexahydro-1H-benzo[f]indazol-6-yl)-1-methyl-1H-pyrazole-3-sulfonamide]	≤ 100	50 to 75
Cn1cc(S(=O)(=O)N(C2CC2)[C@H]2CCC3=Cc4c(cnn4-c4ccc(F)cc4)C[C@]3(C(=O)c3cc(Cl)ccn3)C2)nn1 [Example 268, N-((4aS,6S)-4a-(4-chloropicolinoyl)-1-(4-fluorophenyl)-4,4a,5,6,7,8-hexahydro-1H-benzo[f]indazol-6-yl)-N-cyclopropyl-1-methyl-1H-1,2,3-triazole-4-sulfonamide]	≤ 100	50 to 75
CC(C)N([C@H]1CCC2=Cc3c(cnn3-c3ccc(F)cc3)C[C@]2(C(=O)c2cc(Cl)ccn2)C1)S(=O)(=O)c1cnn(C)n1 [Example 269, N-((4aS,6S)-4a-(4-chloropicolinoyl)-1-(4-fluorophenyl)-4,4a,5,6,7,8-hexahydro-1H-benzo[f]indazol-6-yl)-N-isopropyl-2-methyl-2H-1,2,3-triazole-4-sulfonamide]	≤ 100	75 to 90
Cn1ccc(S(=O)(=O)[C@H]2CCC3=Cc4c(cnn4-c4ccc(F)cc4)C[C@]3(C(=O)c3ccc(C(F)(F)F)cn3)C2)n1 [Example 272, ((4aS,6S)-1-(4-fluorophenyl)-6-((1-methyl-1H-pyrazol-3-yl)sulfonyl)-1,4,5,6,7,8-hexahydro-4aH-benzo[f]indazol-4a-yl)(5-(trifluoromethyl)pyridin-2-yl)methanone]	≤ 100	≤ 25
O=C(c1cc(C(F)(F)F)ccn1)[C@]12Cc3cnn(-c4ccc(F)cc4)c3C=C1CC[C@H](N(CC1CC1)S(=O)(=O)c1ccc(F)cc1)C2 [Example 273, N-(cyclopropylmethyl)-4-fluoro-N-((4aS,6S)-1-(4-fluorophenyl)-4a-(4-(trifluoromethyl)picolinoyl)-4,4a,5,6,7,8-hexahydro-1H-benzo[f]indazol-6-yl)benzenesulfonamide]	≤ 100	≤ 25
CC(C)N([C@H]1CCC2=Cc3c(cnn3-c3ccc(F)cc3)C[C@]2(C(=O)c2cc(C(F)(F)F)ccn2)C1)S(=O)(=O)c1ccc(Cl)nc1 [Example 279, 6-chloro-N-((4aS,6S)-1-(4-fluorophenyl)-4a-(4-(trifluoromethyl)picolinoyl)-4,4a,5,6,7,8-hexahydro-1H-benzo[f]indazol-6-yl)-N-isopropylpyridine-3-sulfonamide]	≤ 100	50 to 75
Cn1cc(S(=O)(=O)N(CC(F)(F)F)[C@H]2CCC3=Cc4c(cnn4-c4ccc(F)cc4)C[C@]3(C(=O)c3cc(Cl)ccn3)C2)cn1 [Example 280, N-((4aS,6S)-4a-(4-chloropicolinoyl)-1-(4-fluorophenyl)-4,4a,5,6,7,8-hexahydro-1H-benzo[f]indazol-6-yl)-1-methyl-N-(2,2,2-trifluoroethyl)-1H-pyrazole-4-sulfonamide]	≤ 100	25 to 50

— patent publication US20210122730A1, “GLUCOCORTICOID RECEPTOR MODULATORS” (ORIC Pharmaceuticals, Inc., priority 2017, published 2021)
